Measured values reported in patent US6737383B1, “Herbicidal oxadiazolidines” (priority 1999, dated 2004).

Tests used:
[1] = system: bedstraw; experiment: Test B pre/postemergence bedstraw; format: in vivo, Galium aparine; settings: Preemergence; for Bedstraw plant response rating: scale 0 to 10, 0 is no effect, 10 is complete control
Method in brief: (§1)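 Test chemicals in a non-phytotoxic solvent mixture with surfactant were sprayed preemergence onto planted seeds and postemergence onto plants 2 to 18 cm tall (1- to 4-leaf stage). After twelve to sixteen days in a greenhouse, injury was visually rated against untreated controls from 0 (no effect) to 10 (complete control).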

[2] = system: blackgrass; experiment: Test B pre/postemergence blackgrass; format: in vivo, Alopecurus myosuroides
Method in brief: as §1

[3] = system: surinam grass; experiment: Test B pre/postemergence surinam grass; format: in vivo, Brachiaria decumbens
Method in brief: as §1

[4] = system: cocklebur; experiment: Test B pre/postemergence cocklebur; format: in vivo, Xanthium strumarium
Method in brief: as §1

[5] = system: corn; experiment: Test B pre/postemergence corn; format: in vivo, Zea mays
Method in brief: as §1

[6] = system: crabgrass; experiment: Test B pre/postemergence crabgrass; format: in vivo, Digitaria sanguinalis
Method in brief: as §1

[7] = system: giant foxtail; experiment: Test B pre/postemergence giant foxtail; format: in vivo, Setaria faberii
Method in brief: as §1

[8] = system: morningglory; experiment: Test B pre/postemergence morningglory; format: in vivo, Ipomoea hederacea
Method in brief: as §1

[9] = system: pigweed; experiment: Test B pre/postemergence pigweed; format: in vivo, Amaranthus retroflexus
Method in brief: as §1

[10] = system: rape; experiment: Test B pre/postemergence rape; format: in vivo, Brassica napus
Method in brief: as §1

[11] = system: soybean; experiment: Test B pre/postemergence soybean; format: in vivo, Glycine max
Method in brief: as §1

[12] = system: sugar beet; experiment: Test B pre/postemergence sugar beet; format: in vivo, Beta vulgaris
Method in brief: as §1

[13] = system: velvetleaf; experiment: Test B pre/postemergence velvetleaf; format: in vivo, Abutilon theophrasti
Method in brief: as §1

[14] = system: wheat; experiment: Test B pre/postemergence wheat; format: in vivo, Triticum aestivum
Method in brief: as §1

[15] = system: wild oat; experiment: Test B pre/postemergence wild oat; format: in vivo, Avena fatua
Method in brief: as §1

[16] = system: purple nutsedge; experiment: Test B pre/postemergence purple nutsedge; format: in vivo, Cyperus rotundus
Method in brief: as §1

[17] = system: rice; experiment: Test B flood test rice; format: in vivo, Oryza sativa
Method in brief: (§2)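 Read-out is a visual response score from 0 (no effect) to 10 (complete control), assigned by comparison with untreated controls. Treatment was applied at the 2-leaf stage, and plants stayed in the greenhouse for twelve to sixteen days before scoring.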

[18] = system: smallflower flatsedge; experiment: Test B flood test smallflower flatsedge; format: in vivo, Cyperus difformis
Method in brief: as §2

[19] = system: duck salad; experiment: Test B flood test duck salad; format: in vivo, Heteranthera limosa
Method in brief: as §2

[20] = system: bamyardgrass; experiment: Test B flood test barnyardgrass; format: in vivo, Echinochloa crus-galli
Method in brief: as §2

[21] = Postemergence, Rate 62 g/ha, scale of 0 to 10, 0 is no effect, 10 is complete control
[22] = Postemergence, Rate 125 g/ha, scale 0 to 10, 0 is no effect, 10 is complete control
[23] = Postemergence, Rate 250 g/ha, scale 0 to 10
[24] = Postemergence, Rate 500 g/ha, scale 0 to 10, 0 is no effect, 10 is complete control
[25] = Preemergence, Rate 62 g/ha, scale of 0 to 10 where 0 is no effect and 10 is complete control
[26] = Preemergence, Rate 125 g/ha, scale 0 to 10, 0 is no effect, 10 is complete control
[27] = Preemergence, Rate 250 g/ha, scale 0 to 10, 0 is no effect, 10 is complete control
[28] = Preemergence, Rate 500 g/ha, scale of 0 to 10 where 0 is no effect and 10 is complete control
[29] = Rate 62 g/ha, flood test species, Pre-emergence, visual evaluation after twelve to sixteen days
[30] = Rate 125 g/ha, under heading Pre-emergence, flood test species, visual evaluation after twelve to sixteen days
[31] = Rate 250 g/ha, Pre-emergence (flood test species), scale 0 to 10, 0 is no effect, 10 is complete control
[32] = Rate 500 g/ha, Pre-emergence section of Table B, 0 to 10 scale (0 no effect, 10 complete control)

Compound: CCc1nc(C)c(Cn2c(=O)on(C(=O)N(c3ccc(Cl)cc3)C(C)C)c2=O)s1 [Compound 499]
- Plant response rating, Bedstraw ([1]; Rate 62 g/ha, scale of 0 to 10 where 0 is no effect and 10 is complete control): 0
- Bedstraw plant response rating ([1]; Rate 125 g/ha): 0
- Bedstraw plant response rating ([1]; Rate 250 g/ha): 0
- Blackgrass plant response rating [2, 21]: 0
- Blackgrass plant response rating [2, 22]: 0
- Blackgrass plant response rating [2, 23]: 2
- Plant response rating, Blackgrass [2, 24]: 4
- Plant response rating, Blackgrass [2, 25]: 0
- Blackgrass plant response rating [2, 26]: 0
- Blackgrass plant response rating [2, 27]: 0
- Blackgrass plant response rating [2, 28]: 1
- B. signalgrass plant response rating [3, 21]: 0
- B. signalgrass plant response rating [3, 22]: 0
- B. signalgrass plant response rating ([3]; Postemergence, Rate 250 g/ha, scale 0 to 10, 0 no effect, 10 complete control): 0
- Plant response rating, B. signalgrass [3, 24]: 0
- Plant response rating, B. signalgrass [3, 25]: 0
- B. signalgrass plant response rating [3, 26]: 0
- B. signalgrass plant response rating [3, 27]: 0
- B. signalgrass plant response rating ([3]; Preemergence, Rate 500 g/ha, scale 0 to 10, 0 is no effect, 10 is complete control): 2
- Cocklebur plant response rating [4, 21]: 0
- Cocklebur plant response rating [4, 22]: 0
- Cocklebur plant response rating [4, 23]: 2
- Plant response rating, Cocklebur [4, 24]: 4
- Cocklebur plant response rating [4, 26]: 0
- Cocklebur plant response rating [4, 27]: 0
- Cocklebur plant response rating [4, 28]: 4
- Corn plant response rating [5, 21]: 0
- Corn plant response rating [5, 22]: 0
- Corn plant response rating [5, 23]: 0
- Plant response rating, Corn [5, 24]: 0
- Plant response rating, Corn [5, 25]: 0
- Corn plant response rating [5, 26]: 0
- Corn plant response rating [5, 28]: 0
- Crabgrass plant response rating [6, 21]: 0
- Crabgrass plant response rating [6, 22]: 0
- Crabgrass plant response rating [6, 23]: 0
- Plant response rating, Crabgrass [6, 24]: 0
- Plant response rating, Crabgrass [6, 25]: 4
- Crabgrass plant response rating [6, 26]: 6
- Crabgrass plant response rating [6, 28]: 8
- Giant foxtail plant response rating [7, 21]: 0
- Giant foxtail plant response rating [7, 22]: 0
- Plant response rating, Giant foxtail [7, 24]: 2
- Plant response rating, Giant foxtail [7, 25]: 3
- Giant foxtail plant response rating [7, 26]: 5
- Giant foxtail plant response rating [7, 28]: 10
- Morningglory plant response rating [8, 21]: 3
- Morningglory plant response rating [8, 22]: 3
- Plant response rating, Morningglory [8, 24]: 6
- Plant response rating, Morningglory [8, 25]: 0
- Morningglory plant response rating [8, 26]: 0
- Morningglory plant response rating [8, 28]: 0
- Redroot pigweed plant response rating [9, 21]: 0
- Redroot pigweed plant response rating [9, 22]: 0
- Plant response rating, Redroot pigweed [9, 24]: 0
- Plant response rating, Redroot pigweed [9, 25]: 0
- Redroot pigweed plant response rating [9, 26]: 0
- Redroot pigweed plant response rating [9, 28]: 0
- Rape plant response rating [10, 21]: 0
- Rape plant response rating [10, 22]: 0
- Plant response rating, Rape [10, 24]: 0
- Plant response rating, Rape [10, 25]: 0
- Rape plant response rating [10, 26]: 0
- Rape plant response rating [10, 28]: 0
- Soybean plant response rating [11, 21]: 0
- Soybean plant response rating [11, 22]: 1
- Plant response rating, Soybean [11, 24]: 3
- Plant response rating, Soybean [11, 25]: 0
- Soybean plant response rating [11, 26]: 0
- Soybean plant response rating [11, 28]: 0
- Sugarbeets plant response rating [12, 21]: 0
- Sugarbeets plant response rating [12, 22]: 0
- Plant response rating, Sugarbeets [12, 24]: 0
- Plant response rating, Sugarbeets [12, 25]: 0
- Sugarbeets plant response rating [12, 26]: 0
- Sugarbeets plant response rating [12, 28]: 0
- Velvetleaf plant response rating [13, 21]: 0
- Velvetleaf plant response rating [13, 22]: 0
- Plant response rating, Velvetleaf [13, 24]: 0
- Plant response rating, Velvetleaf [13, 25]: 0
- Velvetleaf plant response rating [13, 26]: 0
- Velvetleaf plant response rating [13, 28]: 0
- Wheat plant response rating [14, 21]: 0
- Wheat plant response rating [14, 22]: 0
- Plant response rating, Wheat [14, 24]: 0
- Plant response rating, Wheat [14, 25]: 0
- Wheat plant response rating [14, 26]: 0
- Wheat plant response rating [14, 28]: 0
- Wild oats plant response rating [15, 21]: 0
- Wild oats plant response rating [15, 22]: 0
- Plant response rating, Wild oats [15, 24]: 0
- Plant response rating, Wild oats [15, 25]: 0
- Wild oats plant response rating [15, 26]: 0
- Wild oats plant response rating [15, 28]: 0
- Nutsedge plant response rating [16, 21]: 0
- Nutsedge plant response rating [16, 22]: 0
- Plant response rating, Nutsedge [16, 24]: 0
- Nutsedge plant response rating [16, 26]: 0
- Nutsedge plant response rating [16, 28]: 0
- Plant response rating, Rice (0 to 10 scale, 0 is no effect, 10 is complete control) [17, 29]: 0
- Rice plant response rating (0 to 10 scale, 0 is no effect, 10 is complete control) [17, 30]: 0
- Rice plant response rating [17, 31]: 0
- Rice plant response rating [17, 32]: 0
- Plant response rating, S. Flatsedge (0 to 10 scale, 0 is no effect, 10 is complete control) [18, 29]: 0
- S. Flatsedge plant response rating (0 to 10 scale, 0 is no effect, 10 is complete control) [18, 30]: 0
- S. Flatsedge plant response rating [18, 31]: 0
- S. Flatsedge plant response rating [18, 32]: 0
- Plant response rating, Ducksalad (0 to 10 scale, 0 is no effect, 10 is complete control) [19, 29]: 0
- Ducksalad plant response rating (0 to 10 scale, 0 is no effect, 10 is complete control) [19, 30]: 0
- Ducksalad plant response rating [19, 31]: 0
- Ducksalad plant response rating [19, 32]: 0
- Plant response rating, Barnyardgrass (0 to 10 scale, 0 is no effect, 10 is complete control) [20, 29]: 0
- Barnyardgrass plant response rating (0 to 10 scale, 0 is no effect, 10 is complete control) [20, 30]: 0
- Barnyardgrass plant response rating [20, 31]: 0
- Barnyardgrass plant response rating [20, 32]: 0
